The values below come from US11246849B2, “Nerve growth promoter” (LAIMU CORPORATION, priority 2017, dated 2022).

The subject of the first test is PCl2 cells. Description: Bt2cAMP concentration dependency of neurite formation rate (preliminary experiment). Type of test: cell-based, rat. Conditions: Bt2cAMP concentration in the medium 1.0 mM; 24 hours; FIG. 1. How it is done: Using rat adrenal medullary pheochromocytoma-derived PCl2 cells obtained from Riken BioResource Research Center as a model, the L-valine solutions prepared in Preparation Examples were evaluated for the neurite formation effect and the neural differential promoting effect thereof. When acted on by Bt2cAMP (dibutyryladenosine 3′,5′-cyclic monophosphate) or NGF, the PCl2 cells are known to stop growing and to grow nerve fibers and elongate sympathetic ganglionic neuron-like dendrites. Here, L-valine was introduced into the Bt2cAMP-inductive neurite formation process and the NGF-inductive neural differentiation process to thereby evaluate the neurite formation effect and the neural differentiation promoting effect thereof, and the effect of L-valine was compared with that of L-leucine and L-isolencine. Here, the PCl2 cells were cultivated using an RPMI-1640 medium containing 10% equine serum (inactivated), 5% bovine fetal serum (inactivated), 100 U/mL penicillin G and 100 μg/mL streptomycin, in a 5% CO2 vapor phase in an incubator at 37° C., and the resultant cells in an about 70% confluent state were peeled with a basal medium and used in the experiment. […] In FIG. 1, the neurite formation rate is expressed as ±SD, and SD is a standard deviation of the three experiments carried out in the same manner. […]
Take `CCCC(=O)Nc1ncnc2c1ncn2[C@@H]1O[C@@H]2COP(=O)(O)O[C@H]2[C@H]1OC(=O)CCC` [Bt2cAMP, dibutyryladenosine 3′,5′-cyclic monophosphate]: the “neurite formation rate (maximum)” value is 19.5%.

The subject of a further test is PCl2 cells. Kind of test: NGF-inductive neural differentiation, neurofilament immunofluorescent staining. Type of test: cell-based, rat. As to conditions: NGF plus L-valine (sample 1) versus NGF only (comparative sample 2); 48 hours; FIG. 7. How it is done:
(§1) Using rat adrenal medullary pheochromocytoma-derived PCl2 cells obtained from Riken BioResource Research Center as a model, the L-valine solutions prepared in Preparation Examples were evaluated for the neurite formation effect and the neural differential promoting effect thereof. When acted on by Bt2cAMP (dibutyryladenosine 3′,5′-cyclic monophosphate) or NGF, the PCl2 cells are known to stop growing and to grow nerve fibers and elongate sympathetic ganglionic neuron-like dendrites. Here, L-valine was introduced into the Bt2cAMP-inductive neurite formation process and the NGF-inductive neural differentiation process to thereby evaluate the neurite formation effect and the neural differentiation promoting effect thereof, and the effect of L-valine was compared with that of L-leucine and L-isolencine.
(§2) Here, the PCl2 cells were cultivated using an RPMI-1640 medium containing 10% equine serum (inactivated), 5% bovine fetal serum (inactivated), 100 U/mL penicillin G and 100 μg/mL streptomycin, in a 5% CO2 vapor phase in an incubator at 37° C., and the resultant cells in an about 70% confluent state were peeled with a basal medium and used in the experiment. In the following, the medium having the same composition as the medium used in cultivation of the PCl2 cells is referred to as “basal medium”.
A neurofilament was used as a neural differentiation marker. […]
As to `CC(C)[C@H](N)C(=O)O` [L-valine], the “neurofilaments (bright spots in FITC fluorescently-stained image) versus NGF alone” value is on record as “larger number of bright spots”.

For the next test, the system named is PCl2 cells. Description: Bt2cAMP-inductive neurite formation effect. Type of test: cell-based, rat. Conditions: 0.5 mM Bt2cAMP; RPMI-1640; 0.2 μM or 2 μM; FIG. 4. How it is done:
as §1, §2
Here, for the judgement of positivity or negativity, 300 to 400 cells/well were observed.
In the same manner as in the above-mentioned preliminary experiment, a suspension of PCl2 cells was sown in a collagen-coated 96-well plate at 4.0×10^3 cells/90 μL/well, and cultivated therein in a 5% CO2 vapor phase at 37° C. for 24 hours. After the cultivation, Dulbecco PBS(−) containing 10 mM Bt2cAMP, and the L-valine solution prepared in Preparation Example 1 or Preparation Example 2 were added to each well each in an amount of 5 μL/well, and the cells were further cultivated for 24 hours. At this time, the Bt2cAMP concentration in the medium in each well was 0.5 mM.
Next, co-addition of valine and methionine to a medium was checked for the effect. In the same manner as above, Bt2cAMP was added to an RPMI-1640 medium where PCl2 cells were sown and cultivated in each well, and further, an L-valine solution, an L-methionine solution, or a solution of a mixture prepared by mixing L-valine and L-methionine at 1/1 was added thereto and the cells were further cultivated to check for the neurite formation rate. Regarding the concentration of the amino acid added to the RPMI-1640 medium, the concentration in the system using the L-valine solution or the L-methionine solution was 0.2 μM, and the concentration of L-valine and L-methionine in the system using the L-valine and L-methionine mixture solution was 0.1 μM each, totaling 0.2 μM.
For the compound `CC(C)[C@@H](N)C(=O)O` [D-valine], the “neurite formation promoting effect compared with L-valine” value is “same neurite formation promoting effect like that of L-valine”. Same read-out and setting: for `CC(=O)N[C@H](C(=O)O)C(C)C` [N-acetyl-L-valine] the value was “same neurite formation promoting effect like that of L-valine”.

Staying with this test, now noted: 0.5 mM Bt2cAMP; RPMI-1640; amino acid concentration increased up to 200 μM.
Regarding `N[C@@H](CC(=O)O)C(=O)O` [aspartic acid], the “change in the neurite formation ratio” value is recorded as “could not provide any significant change”. Still for that read-out and setting: with `N[C@@H](Cc1c[nH]c2ccccc12)C(=O)O` [tryptophan] the entry was “could not provide any significant change”; with `N[C@@H](CS)C(=O)O` [cysteine], “could not provide any significant change”. Consider `N[C@@H](Cc1ccccc1)C(=O)O` [phenylalanine], for which the “change in the neurite formation ratio” value is reported as “could not provide any significant change”. Consider `N[C@@H](CCC(=O)O)C(=O)O` [glutamic acid], for which the “change in the neurite formation ratio” value is listed as “could not provide any significant change”. As for `O=C(O)[C@@H]1CCCN1` [proline], the “change in the neurite formation ratio” value is “could not provide any significant change”. On the same count and under the same terms, with `C[C@H](N)C(=O)O` [alanine] the entry was “could not provide any significant change”. The same measure, in the same setting: for `C[C@@H](O)[C@H](N)C(=O)O` [threonine] the value was “could not provide any significant change”. `NC(=O)C[C@H](N)C(=O)O` [asparagine]: the “change in the neurite formation ratio” value was “could not provide any significant change”. The same measure, in the same setting: with `N[C@@H](Cc1c[nH]cn1)C(=O)O` [histidine] the entry was “could not provide any significant change”; with `N=C(N)NCCC[C@H](N)C(=O)O` [arginine], “could not provide any significant change”; with `NCCCC[C@H](N)C(=O)O` [lysine], “could not provide any significant change”.

With `NCC(=O)O` [glycine], the “change in the neurite formation ratio” value is “could not provide any significant change”. `N[C@@H](Cc1ccc(O)cc1)C(=O)O` [tyrosine]: the “change in the neurite formation ratio” value is “could not provide any significant change”. The same measure, in the same setting: for `N[C@@H](CO)C(=O)O` [serine] the value was “could not provide any significant change”; for `NC(=O)CC[C@H](N)C(=O)O` [glutamine], “could not provide any significant change”.

Still in this test, the particulars now being: 0.5 mM Bt2cAMP; RPMI-1640; high concentration of 20 μM; FIG. 5.
With `CSCC[C@@H](N)C(=O)O` [D-methionine], the “neurite formation promoting effect” value is on record as “exhibited the neurite formation promoting effect”. Turning to `CSCC[C@H](N)C(=O)O` [L-methionine], the “neurite formation promoting effect” value is “exhibited the neurite formation promoting effect”.

The same test, now with this note: 0.5 mM Bt2cAMP; amino acid 0.02 or 0.2 μg/mL in RPMI-1640 (FIG. 2), 0.02 μg/mL in Nutrient Mixture F-12 Ham (FIG. 3); 24 hours.
Consider `CC(C)C[C@H](N)C(=O)O` [L-leucine], for which the “neurite formation promoting effect” value was “could not be recognized”. The same measure, in the same setting: for `CC[C@H](C)[C@H](N)C(=O)O` [L-isoleucine] the value was “could not be recognized”; for `CC(C)[C@H](N)C(=O)O` [L-valine], “significantly promoted”.
